Read-outs that look alike come from different tables or passages of the source.
Legend:
[1] = biological target: HDAC1 (Homo sapiens, UniProt Q13547); test: HDAC biochemical activity measurement (fluorescent substrate deacetylation); conditions: HDAC1 enzyme, 37°, 30 minutes
Description: (§9) Measurement principle: The chemical activity of the compound is determined according to the degree of deacetylation inhibition of the HDAC enzyme. This experiment measured the degree of deacetylation related to tumor proliferation and metastasis of HDAC1, HDAC2, HDAC3, HDAC8, HDAC11 five subtypes HDAC enzymes. After the substrate containing an acetylated lysine side chain and HDAC enzyme are labeled with a fluorescent label, the fluorescent substrate is de acetyl. The fluorescent labeled substrate is cleaved by the enzyme, and the fluorescent substance is released, which generates 460 nm emission light under the excitation of 360 nm light.
(§10) Specific steps: HDAC substrate was diluted with reaction buffer to 200M (reaction concentration of 20M), the HDAC enzyme was diluted to the appropriate concentration, then added different concentrations of the test compounds and acted at 37 ? 30 minutes, and then added the same volume of 2-times concentration substrate developing solution (developer), incubated at room temperature for 15 minutes. Finally, the last reading measured with a microplate plate reader, excitation light was 360 nm, the emitted light was 460 nm, data processing software was Prime 4, and the results are shown in Table 1.

[2] = biological target: HDAC2 (Homo sapiens, UniProt Q92769); test: as above; conditions: HDAC2 enzyme, 37°, 30 minutes
Description: as §9, §10

[3] = biological target: T1, HDAC8 (Homo sapiens, UniProt Q9BY41); test: as above; conditions: HDAC8 enzyme, 37°, 30 minutes
T1 sequence (Q9BY41 1-377): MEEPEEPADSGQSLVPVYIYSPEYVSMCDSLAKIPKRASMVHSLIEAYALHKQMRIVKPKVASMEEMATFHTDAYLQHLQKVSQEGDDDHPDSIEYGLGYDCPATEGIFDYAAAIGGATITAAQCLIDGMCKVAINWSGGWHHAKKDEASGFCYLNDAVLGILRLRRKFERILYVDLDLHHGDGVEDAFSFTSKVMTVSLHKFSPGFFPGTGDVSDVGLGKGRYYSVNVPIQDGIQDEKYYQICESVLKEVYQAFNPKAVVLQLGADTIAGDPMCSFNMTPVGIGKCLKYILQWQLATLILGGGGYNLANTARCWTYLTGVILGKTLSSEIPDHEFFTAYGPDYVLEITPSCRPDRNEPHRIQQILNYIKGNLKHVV
Description: as §9, §10

[4] = tested on: A549 (human lung cancer cells); test: MTT cancer cell growth inhibition; type: cell-based; conditions: 72 hours incubation, A549 cells, read-out: GI50 A549
From the text: (§1) MTT assay principle is yellow MTT can penetrate membrane into the cell, succinic dehydrogenase of the mitochondria in living cells can make exogenous MTT reduction of insoluble in water of blue-violet acicular formazan for crystallization and deposition in the cell, crystallization can be dissolved dimethyl sulfoxide (DMSO) solution, detected its absorbance at 490 nm/570 nm wavelength by enzyme-linked immunosorbent assay, which can reflect the number of cells.
(§2) Using DMEM+10% FBS culture medium or using 1640+10% FBS culture, respectively.
(§3) Experimental group: 190 μl cell suspension+10 μl different concentrations of drugs (the final concentration is 10^−5˜10^−10 M)
(§4) a) Cells were seeded in 96-well plates with the inoculation of 1500/well, 190 μl/hole, 37° C., 5% of CO2 incubator overnight;
(§5) b) The next day each well was added 10 μl of different drugs. The final concentration of drug was 10^−5˜10^−10 M, three parallel holes; 37° C., 5% CO2 culture incubator for 72 hours incubation;
(§6) c) Per well was added 20 μl 5 mg/ml of MTT, 37° C., 5% CO2 culture incubator for 4 hours incubation;
(§7) d) The supernatant was discarded. Each well was added 100 μl of DMSO and oscillation;
(§8) e) 570 nm readings. Calculate cell viability. GI50 calculation based on the results.

[5] = tested on: BGC-823 (human gastric cancer cells); test: MTT cancer cell growth inhibition; type: cell-based; conditions: 72 hours incubation, BGC-823 cells, read-out: GI50 BGC8
From the text: as §1, §2, §3, §4, §5, §6, §7, §8

[6] = tested on: DU145 (human prostate cancer cells); test: MTT cancer cell growth inhibition; type: cell-based; conditions: 72 hours incubation, DU145 cells, read-out: GI50 Du14
From the text: as §1, §2, §3, §4, §5, §6, §7, §8

[7] = tested on: HT1080 (human fibrosarcoma cells); test: MTT cancer cell growth inhibition; type: cell-based; conditions: 72 hours incubation, HT1080 cells, read-out: GI50 HT10
From the text: as §1, §2, §3, §4, §5, §6, §7, §8

[8] = tested on: Hela (human cervical cancer cells); test: MTT cancer cell growth inhibition; type: cell-based; conditions: Homo sapiens, HeLa, 72 h, 72 hours incubation, Hela cells, read-out: GI50 Hela
From the text: as §1, §2, §3, §4, §5, §6, §7, §8

[9] = tested on: MCF-7 (human breast cancer cells); test: MTT cancer cell growth inhibition; type: cell-based; conditions: 72 hours incubation, MCF-7 cells
From the text: as §1, §2, §3, §4, §5, §6, §7, §8

[10] = tested on: MOLT-4 (human acute lymphoblastic leukemia cells); test: MTT cancer cell growth inhibition; type: cell-based; conditions: 72 hours incubation, MOLT-4 cells, read-out: GI50 Molt-
From the text: as §1, §2, §3, §4, §5, §6, §7, §8

[11] = tested on: PANC-1 (Pac-1, human pancreatic cancer cells); test: MTT cancer cell growth inhibition; type: cell-based; conditions: 72 hours incubation, PANC-1 cells, read-out: GI50 PAN
From the text: as §1, §2, §3, §4, §5, §6, §7, §8

[12] = tested on: U937 (human leukemia cells); test: MTT cancer cell growth inhibition; type: cell-based; conditions: 72 hours incubation
From the text: as §1, §2, §3, §4, §5, §6, §7, §8

[13] = tested on: lncap (prostate cancer cells); test: MTT cancer cell growth inhibition; type: cell-based; conditions: 72 hours incubation, lncap cells, read-out: GI50 lncap
From the text: as §1, §2, §3, §4, §5, §6, §7, §8

[14] = biological target: HDAC3 (Homo sapiens, UniProt O15379); test: HDAC biochemical activity measurement (fluorescent substrate deacetylation); conditions: IC50 (μM) HDAC3, HDAC3 enzyme, 37°, 30 minutes
Description: as §9, §10

[15] = biological target: T2, HDAC11 (Homo sapiens, UniProt Q96DB2); test: as above; conditions: IC50 (μM) HDAC11, HDAC11 enzyme, 37°, 30 minutes
T2 sequence (Q96DB2 1-347): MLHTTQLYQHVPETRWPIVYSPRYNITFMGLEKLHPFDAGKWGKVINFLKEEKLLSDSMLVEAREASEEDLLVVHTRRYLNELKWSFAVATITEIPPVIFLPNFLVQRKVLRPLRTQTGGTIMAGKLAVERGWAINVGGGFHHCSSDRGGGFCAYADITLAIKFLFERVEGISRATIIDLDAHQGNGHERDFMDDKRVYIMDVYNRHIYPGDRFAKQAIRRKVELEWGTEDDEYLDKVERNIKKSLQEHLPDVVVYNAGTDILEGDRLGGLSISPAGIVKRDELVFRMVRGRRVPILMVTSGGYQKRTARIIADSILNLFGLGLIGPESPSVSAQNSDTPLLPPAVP
Description: as §9, §10

[16] = tested on: N-87 (human gastric cancer cells); test: MTT cancer cell growth inhibition; type: cell-based; conditions: 72 h, N-87 cells, 72 hours incubation
From the text: as §1, §2, §3, §4, §5, §6, §7, §8

[17] = biological target: T3, HDAC7 (Homo sapiens, UniProt Q8WUI4); test: HDAC biochemical activity measurement (fluorescent substrate deacetylation); conditions: HDAC7 enzyme, 37°, 30 minutes
T3 sequence (Q8WUI4 1-952): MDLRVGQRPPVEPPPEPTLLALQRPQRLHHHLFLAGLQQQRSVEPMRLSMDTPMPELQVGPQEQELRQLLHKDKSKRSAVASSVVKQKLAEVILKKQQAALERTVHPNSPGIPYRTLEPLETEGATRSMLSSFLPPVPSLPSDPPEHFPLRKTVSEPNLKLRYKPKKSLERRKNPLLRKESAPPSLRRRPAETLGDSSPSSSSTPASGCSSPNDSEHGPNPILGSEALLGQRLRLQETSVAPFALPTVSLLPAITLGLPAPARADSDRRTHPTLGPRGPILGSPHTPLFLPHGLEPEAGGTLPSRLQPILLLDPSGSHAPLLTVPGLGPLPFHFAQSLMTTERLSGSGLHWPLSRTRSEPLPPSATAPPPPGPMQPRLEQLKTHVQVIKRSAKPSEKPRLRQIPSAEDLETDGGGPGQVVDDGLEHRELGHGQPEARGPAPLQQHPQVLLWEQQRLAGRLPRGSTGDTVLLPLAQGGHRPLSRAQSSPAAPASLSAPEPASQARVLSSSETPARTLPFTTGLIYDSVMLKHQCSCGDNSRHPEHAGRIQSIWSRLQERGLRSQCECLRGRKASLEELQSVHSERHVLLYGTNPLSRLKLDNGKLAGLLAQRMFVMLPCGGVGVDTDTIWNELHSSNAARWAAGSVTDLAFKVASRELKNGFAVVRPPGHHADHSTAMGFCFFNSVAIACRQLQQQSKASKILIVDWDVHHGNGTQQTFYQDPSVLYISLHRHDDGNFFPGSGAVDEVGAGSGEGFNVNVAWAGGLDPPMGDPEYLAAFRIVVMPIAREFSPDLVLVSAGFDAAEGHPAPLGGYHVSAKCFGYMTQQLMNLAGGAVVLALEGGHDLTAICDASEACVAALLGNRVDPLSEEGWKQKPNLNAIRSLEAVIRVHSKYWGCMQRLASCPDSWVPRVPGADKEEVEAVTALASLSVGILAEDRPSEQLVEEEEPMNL
Description: Measurement principle: The chemical activity of the compound is determined according to the degree of deacetylation inhibition of the HDAC enzyme. […] After the substrate containing an acetylated lysine side chain and HDAC enzyme are labeled with a fluorescent label, the fluorescent substrate is de acetyl. The fluorescent labeled substrate is cleaved by the enzyme, and the fluorescent substance is released, which generates 460 nm emission light under the excitation of 360 nm light.
as §10

HDAC3, sequence (O15379 whole entry, species assumed): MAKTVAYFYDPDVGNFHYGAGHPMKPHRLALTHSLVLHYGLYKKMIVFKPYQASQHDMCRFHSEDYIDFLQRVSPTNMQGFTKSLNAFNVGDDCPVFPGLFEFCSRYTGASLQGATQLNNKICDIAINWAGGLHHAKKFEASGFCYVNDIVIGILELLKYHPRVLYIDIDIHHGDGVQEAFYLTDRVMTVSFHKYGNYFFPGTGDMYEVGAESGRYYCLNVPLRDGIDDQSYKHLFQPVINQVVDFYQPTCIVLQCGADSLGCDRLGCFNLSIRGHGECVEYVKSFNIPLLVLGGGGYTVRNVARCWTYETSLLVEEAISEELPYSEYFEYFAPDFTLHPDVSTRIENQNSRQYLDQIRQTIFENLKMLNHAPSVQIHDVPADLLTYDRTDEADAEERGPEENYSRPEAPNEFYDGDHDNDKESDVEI
HDAC3, sequence (Q9Y618 395-489 partner limits assumed, species assumed): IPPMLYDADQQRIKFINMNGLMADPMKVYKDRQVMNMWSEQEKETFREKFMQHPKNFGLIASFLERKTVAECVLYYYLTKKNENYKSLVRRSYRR
HDAC2, sequence (Q92769 whole entry, species assumed): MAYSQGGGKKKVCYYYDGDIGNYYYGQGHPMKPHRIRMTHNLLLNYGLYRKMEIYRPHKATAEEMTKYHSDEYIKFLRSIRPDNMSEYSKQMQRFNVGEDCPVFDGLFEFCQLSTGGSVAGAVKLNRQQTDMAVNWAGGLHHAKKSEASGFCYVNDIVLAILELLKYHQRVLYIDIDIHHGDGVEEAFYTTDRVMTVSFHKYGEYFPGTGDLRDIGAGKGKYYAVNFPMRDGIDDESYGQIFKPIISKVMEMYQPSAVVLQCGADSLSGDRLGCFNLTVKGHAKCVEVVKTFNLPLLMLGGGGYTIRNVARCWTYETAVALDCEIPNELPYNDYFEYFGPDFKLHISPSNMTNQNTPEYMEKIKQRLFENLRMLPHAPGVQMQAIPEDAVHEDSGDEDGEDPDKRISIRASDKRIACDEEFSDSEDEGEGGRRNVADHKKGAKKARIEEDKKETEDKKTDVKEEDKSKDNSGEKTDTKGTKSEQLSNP
HDAC1, sequence (Q13547 whole entry, species assumed): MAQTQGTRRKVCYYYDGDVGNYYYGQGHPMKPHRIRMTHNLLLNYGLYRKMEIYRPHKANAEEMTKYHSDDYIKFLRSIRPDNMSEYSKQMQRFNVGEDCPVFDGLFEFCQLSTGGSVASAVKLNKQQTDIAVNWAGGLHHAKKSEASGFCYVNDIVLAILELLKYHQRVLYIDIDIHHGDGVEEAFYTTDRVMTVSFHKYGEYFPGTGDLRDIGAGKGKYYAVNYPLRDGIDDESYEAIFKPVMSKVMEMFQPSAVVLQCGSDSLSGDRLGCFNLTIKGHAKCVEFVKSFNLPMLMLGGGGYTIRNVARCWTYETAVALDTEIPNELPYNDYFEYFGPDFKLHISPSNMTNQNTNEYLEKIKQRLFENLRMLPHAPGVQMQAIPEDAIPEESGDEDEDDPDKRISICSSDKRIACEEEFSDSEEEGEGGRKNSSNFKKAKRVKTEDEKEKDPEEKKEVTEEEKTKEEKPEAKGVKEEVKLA

Structure (SMILES) | IC50 [1] [µM] | IC50 [2] [µM] | IC50 [3] [µM] | GI50 ([4]; Homo sapiens, A549, 72 h) [nM] | GI50 ([5]; Homo sapiens, BGC-823, 72 h) [nM] | GI50 ([6]; Homo sapiens, DU-145, 72 h) [nM] | GI50 ([7]; Homo sapiens, HT-1080, 72 h) [nM] | GI50 [8] [nM] | GI50 ([9]; Homo sapiens, MCF7, 72 h) [nM] | GI50 ([11]; Homo sapiens, PANC-1, 72 h) [nM] | GI50 ([12]; Homo sapiens, U-937, 72 h) [nM] | GI50 ([13]; Homo sapiens, LNCaP, 72 h) [nM] | IC50 [14] [µM] | IC50 [15] [µM] | further results
C/C=C1\NC(=O)c2ccc(SC)c(n2)CNC(=O)C[C@@H](/C=C/CCSC(=O)CCC)OC(=O)[C@H](C(C)C)NC1=O [Compound 161] | 0.061 | 0.033 | 0.062 | 83 | 29 | 23 | 57 | 12 | 73 | 11 | 65 | 79 | 0.063 | 0.086 | GI50 ([10]; Homo sapiens, MOLT-4, 72 h): 32 nM
C/C=C1\NC(=O)c2ccc(F)c(n2)CNC(=O)C[C@@H](/C=C/CCSC(C)=O)OC(=O)[C@H](C(C)C)NC1=O [Compound 95] | – | – | – | – | – | – | – | – | – | – | – | – | – | – | GI50 [16]: 23 nM
C/C=C1\NC(=O)c2ccc(SC)c(n2)CNC(=O)C[C@@H](/C=C/CCSC(=O)CCCC)OC(=O)[C@H](C(C)C)NC1=O [Compound 158] | 0.081 | 0.028 | 0.043 | 37 | 32 | 63 | 76 | 68 | 21 | 23 | 42 | 43 | 0.053 | 0.092 | –
C/C=C1\NC(=O)c2cccc(n2)CNC(=O)C[C@@H](/C=C/CCSC(=O)CCCCCCC)OC(=O)[C@@H](C)NC1=O [Compound 236] | – | – | – | – | – | – | – | – | – | – | – | 53 | – | – | –
C/C=C1\NC(=O)c2ncc(SC)c(n2)CNC(=O)C[C@@H](/C=C/CCSC(C)=O)OC(=O)[C@H](C(C)C)NC1=O [Compound 217] | – | – | – | – | – | – | – | – | – | – | – | – | – | – | IC50 (μM) HDAC7 [17]: no activity; GI50 [4]: 72 nM; GI50 [5]: 35 nM; GI50 [6]: 27 nM; GI50 [7]: 21 nM; GI50 [9]: 63 nM; GI50 [10]: 99 nM; GI50 [11]: 73 nM; GI50 [12]: 91 nM; GI50 [13]: 34 nM
